Experimental data published in patent US20230250096A1, “SUBSTITUTED PHENYL-1H-PYRROLO[2,3-c] PYRIDINE DERIVATIVES” (Janssen Pharmaceutica NV, priority 2021, published 2023).
Read-outs that look alike come from different tables or passages of the source.

Legend:
Assay type in all cases: cell-based, human
KO-52 cells = assay: Proliferation assay (spheroid confluence, 8 days), KO-52 control cell line; conditions: Homo sapiens, read-out: spheroid assay_KO-52 IC50
In short: (§1)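 Absolute IC50 derived from spheroid confluence imaged on day 8, scaled between DMSO (0%) and a cytotoxic low control such as 1 μM staurosporin, fitted with variable slope, bounds fixed at 0 and 100%. Seeding 200 cells/well (300 for KO-52), ultra-low attachment plates, 0.3% DMSO, 37° C.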

MOLM14 cells = assay: Proliferation assay (spheroid confluence, 8 days), MOLM14; conditions: read-out: spheroid assay_MOLM14 IC50
In short: as §1

MEIS1 mRNA expression = MEIS1 mRNA expression assay (Quantigene Singleplex) in MOLM14 cells; conditions: 48 hours incubation
In short: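 Read-out: MEIS1 transcript counts, background-subtracted and divided by RPL28, expressed as fold change over DMSO-treated cells, then dose-response modelled for IC50. MOLM14 cells (3,750/well) received graded compound for 48 h before lysis and QuantiGene hybridization at 55 °C.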

IC50 (MOLM14 cells; Homo sapiens, MOLM-14, MOLM14) [nM] | IC50 (MEIS1 mRNA expression; Homo sapiens, MOLM-14, 48 h) [nM] | IC50 (MOLM14 cells; MOLM14) [nM] | IC50 (MEIS1 mRNA expression) [nM] | Compound | IC50 (KO-52 cells) [nM]
12 | 14 | – | – | Cc1cncc2c1c(C[C@@H]1CCN(C[C@H]3CC[C@@H](C(=O)N4CCC4)CC3)C1)cn2-c1ccc(F)cc1C(=O)N(C)C(C)C [Compound 178] | 2900
23 | 44 | – | – | CNC(=O)[C@H]1CC[C@@H](CN2CC[C@@H](Cc3cn(-c4ccc(F)cc4C(=O)N(C)C(C)C)c4cncc(C)c34)C2)CC1 [Compound 185] | 11000
255 | 314 | – | – | CC(=O)N1CCC(CCN2CC[C@@H](Cc3cn(-c4ccc(F)cc4C(=O)N(C)C(C)C)c4cncc(C)c34)C2)CC1 [Compound 189] | 14400
126 | 338 | – | – | Cc1cncc2c1c(C[C@@H]1CCN(C[C@H]3CCCCN3)C1)cn2-c1ccc(F)cc1C(=O)N(C)C(C)C [Compound 199] | 11800
– | – | 679 | ~864 | CC(=O)NC1CCC(N2CC[C@@H](Cc3cn(-c4ccc(F)cc4C(=O)N(C)C(C)C)c4cncc(C)c34)C2)CC1 (stereo partly drawn) [Compound 200] | > 15000
7 | 25 | – | – | CNC(=O)N1CCC(CN2CCC(Cc3cn(-c4ccc(F)cc4C(=O)N(C)C(C)C)c4cncc(C)c34)CC2)CC1 [Compound 202] | 3400
12 | 43 | – | – | CON(C)C(=O)N1CCC(CN2CCC(Cc3cn(-c4ccc(F)cc4C(=O)N(C)C(C)C)c4cncc(C)c34)CC2)CC1 [Compound 203] | 2900
16 | 79 | – | – | Cc1cncc2c1c(CC1CCN(CC3CCN(C(=O)N4CCOCC4)CC3)CC1)cn2-c1ccc(F)cc1C(=O)N(C)C(C)C [Compound 204] | 1600
19 | 19 | – | – | Cc1cncc2c1c(C[C@@H]1CCN(CC3CCC(O)CC3)C1)cn2-c1ccc(F)cc1C(=O)N(C)C(C)C (stereo partly drawn) [Compound 205] | 2500
16 | 29 | – | – | Cc1cncc2c1c(C[C@@H]1CCN(CC3CCN(C(N)=O)CC3)C1)cn2-c1ccc(F)cc1C(=O)N(C)C(C)C [Compound 207] | 14300
169 | – | – | 113 | CC(=O)NC1CCC(N2CC[C@H](Cc3cn(-c4ccc(F)cc4C(=O)N(C)C(C)C)c4cncc(C)c34)C2)CC1 (stereo partly drawn) [Compound 211] | > 15000
10 | – | – | 8 | CC(=O)N1CCC(CN2CCC(Cc3cn(-c4ccc(F)cc4C(=O)N(C)C(C)C)c4cncc(C)c34)C2C)CC1 (stereo not drawn) [Compound 228] | 5800
15 | 15 | – | – | Cc1cncc2c1c(CC1CN(CC3CCOCC3)C1)cn2-c1ccc(F)cc1C(=O)N1CCC2CC21 (stereo not drawn) [Compound 262] | 2900
20 | 25 | – | – | Cc1cncc2c1c(CC1CN(CC3CCOCC3)C1)cn2-c1ccc(F)cc1C(=O)N1CC2CC1CO2 (stereo not drawn) [Compound 264] | 13500
88 | 37 | – | – | Cc1cncc2c1c(CC1CN(CC3CCOCC3)C1)cn2-c1ccc(F)cc1C(=O)N1CCCC1CO (stereo not drawn) [Compound 268] | > 15000
12 | 17 | – | – | Cc1cncc2c1c(CC1CN(CC3CCOCC3)C1)cn2-c1ccc(F)cc1C(=O)N1CCC[C@H]1C [Compound 279] | 5100
10 | 13 | – | – | Cc1cncc2c1c(CC1CN(CC3CCOCC3)C1)cn2-c1ccc(F)cc1C(=O)N(CCO)C(C)C [Compound 281] | 4200
17 | 18 | – | – | CC(=O)N1CCC(CN2CC[C@@H](Cc3cn(-c4ccc(F)cc4C(=O)N4CCC5CC54)c4cncc(C)c34)C2)CC1 (stereo partly drawn) [Compound 311] | 5200
33 | 55 | – | – | CC(=O)N1CCC(CN2CC[C@@H](Cc3cn(-c4ccc(F)cc4C(=O)N4CC5CC4CO5)c4cncc(C)c34)C2)CC1 (stereo partly drawn) [Compound 312] | > 15000
10 | 37 | – | – | CC(=O)N1CCC(CN2CC[C@@H](Cc3cn(-c4ccc(F)cc4C(=O)N4CCC[C@H]4C)c4cncc(C)c34)C2)CC1 [Compound 315] | 2400
12 | 29 | – | – | CC(=O)N1CCC(CN2CC[C@@H](Cc3cn(-c4ccc(F)cc4C(=O)N4[C@@H](C)CC[C@@H]4C)c4cncc(C)c34)C2)CC1 [Compound 316] | 8900
139 | 240 | – | – | CC(=O)N1CCC(CN2CC[C@@H](Cc3cn(-c4ccc(F)cc4C(=O)N4CCC[C@@H]4C)c4cncc(C)c34)C2)CC1 [Compound 319] | > 15000
19 | 23 | – | – | CC(=O)N1CCC(CN2CC[C@@H](Cc3cn(-c4ccc(F)cc4C(=O)N(CC(C)O)C(C)C)c4cncc(C)c34)C2)CC1 (stereo partly drawn) [Compound 320] | 6900

Compound | IC50 (MOLM14 cells; Homo sapiens, MOLM-14, MOLM14) [nM] | IC50 (MEIS1 mRNA expression; Homo sapiens, MOLM-14, 48 h) [nM] | IC50 (MOLM14 cells; MOLM14) [nM] | IC50 (MEIS1 mRNA expression) [nM] | IC50 (KO-52 cells) [nM]
CC(=O)N1CC2CC(C1)C2N1CC[C@H](Cc2cn(-c3ccc(F)cc3C(=O)N(C)C(C)C)c3cncc(C)c23)C1 (stereo partly drawn) [Compound 208] | 224 | 281 | – | – | > 15000
CC(=O)N1CC2CC(C1)C2N1CC[C@@H](Cc2cn(-c3ccc(F)cc3C(=O)N(C)C(C)C)c3cncc(C)c23)C1 (stereo partly drawn) [Compound 209] | 458 | > 1000 | – | – | 12800
